US20240287172A1, “PROTEIN BINDERS TO IRHOM2 EPITOPES” (SCIRHOM GMBH, priority 2019, published 2024)

Tested on: PMA-induced release of endogenous IL-6R from PBMCs from healthy donors
Experiment: ELISA-based IL-6R release assay, PMA-induced, PBMCs from healthy donors
Format: cell-based
Details: Homo sapiens, PBMC; PMA 25 ng/ml, 6 hours; recombinant murine antibodies and IgG at 1 μg/ml; Batimastat at 10 μM
Experimental: In brief, on day 1, Nunc black MaxiSorp® 96-well plates (Thermo Fisher Scientific, USA) were coated overnight with 100 μl per well of mouse anti-human IL-6R capture antibody (provided as part of the DuoSet ELISA kit) at 4 μg/ml TBS at 4° C. On day 2, the capture antibody solution was removed and MaxiSorp® plates were blocked with 300 μl per well of TBS, 1% BSA at room temperature for 3 hours. Meanwhile, 40,000 PBMC from healthy donors (STEMCELL Technologies, Canada) cells in 80 μl of normal growth medium were seeded in each well of Greiner CELLSTAR V-bottom 96-well plates (Thermo Fisher Scientific, USA) and pre-incubated with 20 μl per well of standard growth medium supplemented with Batimastat (BB94, Abcam, UK) at 50 μM as positive control (for a final concentration of 10 μM in the resulting 100 μl sample volume), mouse IgG antibody (Thermo Fisher Scientific, USA) at 5 μg/ml as isotype control (for a final concentration of 1 μg/ml in the resulting 100 μl sample volume) or antibodies of the invention at 5 μg/ml (for a final concentration of 1 μg/ml in the resulting 100 μl sample volume) at 37° C., 5% CO2 for 30 minutes. […] Using an infinite M1000 (Tecan Group, Switzerland) microplate reader, the fluorescence of each well was collected at an excitation wavelength of 435 nm and an emission wavelength of 555 nm.

`CNC(=O)[C@H](Cc1ccccc1)NC(=O)[C@H](CC(C)C)[C@H](CSc1cccs1)C(=O)NO` [Batimastat] showed an inhibition at 10 µM of 114%.
